Measurements published in US20230080054A1 (ILDONG PHARMACEUTICAL CO., LTD., priority 2021, published 2023).

How the values were obtained:
human ANO6 = target: T1, human ANO6 (Homo sapiens, UniProt Q4KMQ2); assay: LACT C2 assay (phosphatidylserine scramblase function assay); assay type: cell-based; settings: FRT cells expressing human ANO6, 10 μM ionomycin; for inhibition at 0.1 µM: test compound 100 nM, read-out: Inhibition Level 100 nM; for inhibition at 1 µM: test compound 1 μM, read-out: Inhibition Level 1 μM
T1 construct: expressed in transfected cells
T1 sequence (Q4KMQ2 1-931 isoform Q4KMQ2-2): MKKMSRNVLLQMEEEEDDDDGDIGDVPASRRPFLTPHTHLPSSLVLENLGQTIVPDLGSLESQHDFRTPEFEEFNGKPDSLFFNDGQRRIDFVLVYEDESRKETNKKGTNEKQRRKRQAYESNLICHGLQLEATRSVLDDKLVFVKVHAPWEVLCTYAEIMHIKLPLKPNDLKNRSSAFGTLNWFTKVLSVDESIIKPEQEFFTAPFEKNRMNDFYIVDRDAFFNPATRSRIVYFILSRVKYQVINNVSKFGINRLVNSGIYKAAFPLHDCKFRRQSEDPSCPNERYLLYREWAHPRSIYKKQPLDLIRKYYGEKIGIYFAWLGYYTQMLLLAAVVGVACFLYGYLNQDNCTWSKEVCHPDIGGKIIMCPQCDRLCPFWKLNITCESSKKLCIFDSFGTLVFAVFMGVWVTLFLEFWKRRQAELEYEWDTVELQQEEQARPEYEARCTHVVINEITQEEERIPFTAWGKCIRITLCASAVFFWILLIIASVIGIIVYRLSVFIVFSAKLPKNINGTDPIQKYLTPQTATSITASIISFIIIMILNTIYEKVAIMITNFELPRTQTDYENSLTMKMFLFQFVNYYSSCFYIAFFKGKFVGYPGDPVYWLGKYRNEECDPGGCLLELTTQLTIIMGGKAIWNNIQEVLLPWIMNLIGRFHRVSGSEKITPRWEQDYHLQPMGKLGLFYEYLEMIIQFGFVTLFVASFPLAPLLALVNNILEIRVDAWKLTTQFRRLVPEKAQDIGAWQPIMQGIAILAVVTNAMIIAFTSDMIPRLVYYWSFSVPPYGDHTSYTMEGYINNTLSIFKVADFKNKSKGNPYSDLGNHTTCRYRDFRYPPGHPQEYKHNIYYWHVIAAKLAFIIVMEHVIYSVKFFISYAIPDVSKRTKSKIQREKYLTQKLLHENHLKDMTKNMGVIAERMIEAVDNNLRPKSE
In short: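 FRT cells stably expressing human ANO6 were pretreated with compound (1% DMSO) for 10 min, then stimulated with 10 μM ionomycin for 10 min. Surface phosphatidylserine was stained with 500 nM Lact-C2-GFP and quantified by imaging. Inhibition was scaled between unstimulated (100%) and ionomycin-only (0%) controls, averaged over triplicates.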

[1] = tested on: platelet-rich plasma (PRP); assay: Recalcification time of rat platelet-rich plasma; settings: 30 μM, vs 2% DMSO control
Protocol: Example 5: Recalcification Time
(§1) 1. Materials and Instruments
Isoflurane (Hana Pharm, cat. #9008), Isotonic Sodium Chloride Injection (Daihan Pharm, cat. #331), Citrate-dextrose solution (Sigma-Aldrich, cat. #C3821), Calcium chloride solution (Sigma-Aldrich, cat. #21115), 22G Syringe 10 mL (Koreavaccine), Dimethyl sulfoxide (Sigma-Aldrich, cat. #D5879), Apixaban (AK scientific, cat. #X1060), 96 Well Cell Culture Plates (SPL Life Sciences, cat. #30096), Synergy H4 Hybrid Microplate Reader (BioTek), Combi R515 Multi-purpose Centrifuge (Hanil Scientific), BS-06 Shaking & Heating Baths (JEIO TECH), and PST-60HL-4 Plate Shaker-Thermostat (Bio-San)
Seven-week-old male SD Rat (ORIENT BIO.) were maintained under controlled conditions of temperature (22±2° C.) and 12-h light/12-h dark cycle. Rats were housed in the pathogen-free facility of the Laboratory Animal Research Center in Ildong Pharmaceutical Co. Ltd. All procedures on animals were conducted in accordance with the relevant national regulatory guidelines and individual experiments approved by the Ildong Pharmaceutical Co. Ltd., Institutional Animal Care and Use Committee (IACUC) (approval No.: A2106-3, 2108-4).
The ability of test compounds to interfere with plasma coagulation, in the presence of platelets, was analyzing by measuring the recalcification time of rat plasma. The blood of animals was collected into 15 mL tubes containing Citrate-dextrose solution (9:1 v/v) before performing the assays. For recalcification time, platelet-rich plasma (PRP) samples were obtained by centrifugation at 360×g for 10 minutes. And the PRP were preincubated for 5 minutes (37° C.). In a 96 well microplate, test compounds (2 μL) were treated in 98 μL of platelet rich plasma. After mixing with a pipette, it was incubated at 37° C. for 15 minutes. The reaction was started by addition of 200 μL of pre-warmed CaCl2) (16 mM). Immediately, put the microplate in a microplate reader and the signals were measured by the following steps.
(1) 405 nm wavelength absorbance signals were recorded in every 10 seconds at 37° C.
(2) Basal absorbance signals were recorded for 0 second.
The signal variance of each of the test compounds was obtained by the following step.
(1) Background signals (t=O) were subtracted from recording values, and the resulting values were converted to change values. The values at 0 second were set to be zero.
The retardation time of test compound were calculated by the following formula:
Retardation time (sec)=[log EC50 (test sample)−log EC50 (DMSO control)]
As described above, a DMSO control group is a group to which 2% DMSO was treated.
The assay result is shown in Table 5, where compounds (30 μM) having less than 20 seconds of retardation time are marked by ‘C’; the compounds (30 μM) having retardation time of 20 seconds or more to less than 50 seconds are marked by ‘B’; and the compounds (30 μM) having retardation time of 50 seconds or more are marked by ‘A’.

citrated human blood = assay: NATEM (ROTEM thromboelastometry, blood clot formation); settings: 100 μM, 2% v/v DMSO, 15 min preincubation
Protocol: as §1
Star-TEM reagent (TEM International GmbH, cat. #000503-01), Dimethyl sulfoxide (Sigma-Aldrich, cat. #D2438), Cleancle normal saline (JW Pharm), and ROTEM® delta system (TEM International GmbH).
Human blood research was experimented after approval from the Yonsei University Institutional Review Board (IRB) in accordance with the Life Ethics and Safety Act.
Blood samples for NATEM were kept at room temperature, and all NATEM analyses were performed at 37° C. NATEM was carried out using 300 μL of citrated human blood preincubating with test compounds (100 μM, 2% v/v DMSO) for 15 minutes in cuvette and […] with Star-TEM reagent according to the manufacturer's manual (ROTEM; Tem International GmbH, Munich, Germany). After addition of the star-TEM reagent, cuvettes were measured by ROTEM® delta system. Blood clot formation was evaluated.
The obtained parameters were time to clot initiation (Clotting Time, CT), time to clot formation, α angle for clot growth kinetics (initial rate of fibrin polymerization), amplitude (firmness) at 10 minutes, maximum clot firmness, and maximum lysis.

| Structure (SMILES) | inhibition at 0.1 µM (human ANO6) | inhibition at 1 µM (human ANO6) | Inhibition Level (retardation time, recalcification time) [1] | also measured |
| --- | --- | --- | --- | --- |
| O=C(Nc1cccc(F)c1)c1cccc(Nc2ccc(-c3ccccc3)cn2)c1 [Compound 128, N-(3-fluorophenyl)-3-((5-phenylpyridin-2-yl)amino)benzamide] | ≥ 60% | ≥ 60% | A (the compounds (30 μM) having retardation time of 50 seconds or more) | – |
| O=C(Nc1cccc([N+](=O)[O-])c1)c1cccc(Nc2ccc(-c3cccc(F)c3)cn2)c1 [Compound 141, 3-((5-(3-fluorophenyl)pyridin-2-yl)amino)-N-(3-nitrophenyl)benzamide] | ≥ 60% | ≥ 60% | A (the compounds (30 μM) having retardation time of 50 seconds or more) | – |
| O=C(NCCC12CC3CC(CC(C3)C1)C2)c1cccc(Nc2ccc(-c3cccc(F)c3)cn2)c1 [Compound 142, N-(2-(adamantan-1-yl)ethyl)-3-((5-(3-fluorophenyl)pyridin-2-yl)amino)benzamide] | ≥ 60% | ≥ 60% | A (the compounds (30 μM) having retardation time of 50 seconds or more) | – |
| O=C(Nc1cccc(F)c1)c1cccc(Nc2ccc(-c3ccccn3)cc2)c1 [Compound 154, N-(3-fluorophenyl)-3-((4-(pyridin-2-yl)phenyl)amino)benzamide] | ≥ 60% | ≥ 60% | A (the compounds (30 μM) having retardation time of 50 seconds or more) | – |
| O=C(N[C@@H]1C[C@H]1c1ccccc1)c1cccc(Nc2ccc(-c3ccccn3)cc2)c1 [Compound 155, N-((1R,2S)-2-phenylcyclopropyl)-3-((4-(pyridin-2-yl)phenyl)amino)benzamide] | ≥ 60% | ≥ 60% | A (the compounds (30 μM) having retardation time of 50 seconds or more) | A10, amplitude (firmness) at 10 minutes (citrated human blood): 45 mm; CFT, clot formation time (citrated human blood): 168 s; CT, clotting time (citrated human blood): 616 s; MCF, maximum clot firmness (citrated human blood): 57 mm; ML, maximum lysis (citrated human blood): 2%; α, α-angle (citrated human blood): 59 ° |
| O=C(Nc1cccc(F)c1)c1cccc(Nc2ccc(-c3cccnc3)cc2)c1 [Compound 160, N-(3-fluorophenyl)-3-((4-(pyridin-3-yl)phenyl)amino)benzamide] | ≥ 60% | ≥ 60% | B (the compounds (30 μM) having retardation time of 20 seconds or more to less than 50 seconds) | – |
| O=C(N[C@@H]1C[C@H]1c1ccccc1)c1cccc(Nc2ccc(-c3cccnc3)cc2)c1 [Compound 161, N-((1R,2S)-2-phenylcyclopropyl)-3-((4-(pyridin-3-yl)phenyl)amino)benzamide] | ≥ 60% | ≥ 60% | A (the compounds (30 μM) having retardation time of 50 seconds or more) | – |
| O=C(Nc1cccc(F)c1)c1cccc(Nc2ccc(-c3cncnc3)cc2)c1 [Compound 164, N-(3-fluorophenyl)-3-((4-(pyrimidin-5-yl)phenyl)amino)benzamide] | 30 to 60% | – | C (compounds (30 μM) having less than 20 seconds of retardation time) | – |
| O=C(N[C@@H]1C[C@H]1c1ccccc1)c1cccc(Nc2ccc(-c3cncnc3)cc2)c1 [Compound 165, N-((1R,2S)-2-phenylcyclopropyl)-3-((4-(pyrimidin-5-yl)phenyl)amino)benzamide] | < 30% | – | C (compounds (30 μM) having less than 20 seconds of retardation time) | – |
| O=C(Nc1cccc(F)c1)c1cccc(Nc2ccc(-c3ncccn3)cc2)c1 [Compound 170, N-(3-fluorophenyl)-3-((4-(pyrimidin-2-yl)phenyl)amino)benzamide] | 30 to 60% | – | B (the compounds (30 μM) having retardation time of 20 seconds or more to less than 50 seconds) | – |
| O=C(N[C@@H]1C[C@H]1c1ccccc1)c1cccc(Nc2ccc(-c3ncccn3)cc2)c1 [Compound 171, N-((1R,2S)-2-phenylcyclopropyl)-3-((4-(pyrimidin-2-yl)phenyl)amino)benzamide] | < 30% | – | C (compounds (30 μM) having less than 20 seconds of retardation time) | – |
| O=C(Nc1cccc(F)c1)c1cccc(Nc2ccc(-c3cnccn3)cc2)c1 [Compound 172, N-(3-fluorophenyl)-3-((4-(pyrazin-2-yl)phenyl)amino)benzamide] | ≥ 60% | – | C (compounds (30 μM) having less than 20 seconds of retardation time) | – |
| O=C(N[C@@H]1C[C@H]1c1ccccc1)c1cccc(Nc2ccc(-c3cnccn3)cc2)c1 [Compound 173, N-((1R,2S)-2-phenylcyclopropyl)-3-((4-(pyrazin-2-yl)phenyl)amino)benzamide] | < 30% | – | B (the compounds (30 μM) having retardation time of 20 seconds or more to less than 50 seconds) | – |
| O=C(Nc1cccc(F)c1)c1cccc(Nc2ccc(-c3ccncn3)cc2)c1 [Compound 175, N-(3-fluorophenyl)-3-((4-(pyrimidin-4-yl)phenyl)amino)benzamide] | ≥ 60% | – | B (the compounds (30 μM) having retardation time of 20 seconds or more to less than 50 seconds) | – |
| O=C(Nc1cccc(F)c1)c1cccc(Nc2ncc(-c3ccoc3)cn2)c1 [Compound 176, N-(3-fluorophenyl)-3-((5-(furan-3-yl)pyrimidin-2-yl)amino)benzamide] | – | – | C (compounds (30 μM) having less than 20 seconds of retardation time) | – |
